Consider 33 molecules from the METLIN SMRT retention time set (Domingo-Almenara et al. 2019).

This data set can be described thus: gradient 5% acetonitrile 3 min, to 50% in 2 min, to 85% in 15 min, held 3 min, 100 µL/min. Particulars: column: Zorbax Extend-C18 2.1 x 50 mm; eluents: water / acetonitrile, 0.1% formic acid. In short, it runs like this: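 Data were gathered over 3 months by HPLC coupled to a quadrupole time-of-flight mass spectrometer, operated in positive and negative ionization mode. Mixtures of ~100 pure standards ran on a Zorbax Extend-C18 column (2.1 × 50 mm, 1.8 μm) at 100 μL/min, with water and acetonitrile each containing 0.1% formic acid and dead and dwell volumes of 40 μL and 900 μL. Retention time was read from adduct peaks picked by computer and checked manually.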
The molecule `CN1C(=O)c2cccnc2Sc2cc(NC(=O)c3cccc(F)c3)ccc21` gave an RP-LC retention time of 790 s.

In turn, `O=C(c1ccsc1)N1CCN(S(=O)(=O)c2cc(-c3noc(C4CCC4)n3)cs2)CC1` showed an RP-LC retention time of 985 s.

Regarding `Cc1ccc(Cn2c(=O)c(N3CCC(NC(=O)NC(C)C)CC3)nc3cccnc32)cc1`, the RP-LC retention time worked out at 986 s.

The molecule `N#Cc1cn(CC(=O)NCc2ccc3c(c2)OCCCO3)c2ccccc12` had an RP-LC retention time of 842 s.

As for `Cc1ccc(SCC(=O)Nc2nnc(Cc3ccc4c(c3)OCO4)o2)cc1`, the RP-LC retention time was 780 s.

For `O=C1NC2(CCN(C(=O)c3ccc(F)cc3)CC2)N=C1c1ccc(Cl)cc1`, the RP-LC retention time is 872 s.

The molecule `CC(C)CN1CCCCc2cc(C(=O)NC3CCS(=O)(=O)C3)sc21` (stereo not drawn) registered an RP-LC retention time of 941 s.

`COc1ccc(N2C=C(C(=O)N3CCCC3)S(=O)(=O)c3ccccc32)cc1` returned an RP-LC retention time of 764 s.

As for `Cc1nn(CC(=O)NC2CC2)c(=O)c2c(-n3cccc3)n(-c3cccc(F)c3)nc12`, the RP-LC retention time amounted to 828 s.

As for `CCN(CC)c1cc(CNC(=O)Nc2cc(OC)ccc2OC)ccn1`, the RP-LC retention time is 632 s.

`O=C(Nc1cccc(Cl)c1F)N1CCCC1c1nncn1-c1ccccc1` (stereo not drawn) gave an RP-LC retention time of 745 s.

Turning to `O=C(NCCc1c[nH]c2ccccc12)C1CCN(c2ncnc3c2oc2ccccc23)CC1`, the RP-LC retention time was 722 s.

For the molecule `Cc1cc(=O)n(CC(=O)Nc2ccc(Br)cc2)c(N2CCC(C)CC2)n1`, the RP-LC retention time came out at 793 s.

The molecule `CC(C)c1noc(C2CCCN(S(=O)(=O)c3cccs3)CCC(=O)NCC2)n1` (stereo not drawn) came in with an RP-LC retention time of 787 s.

`Cc1noc(-c2cc(=O)n(CC(=O)NC3CCCC3)c3ccccc23)n1` showed an RP-LC retention time of 782 s.

The molecule `COc1ccc(Nc2c(C(=O)N3CCCCC3C)cnc3nc(C)ccc23)cc1` (stereo not drawn) yielded an RP-LC retention time of 639 s.

For `O=C(NCc1cccs1)C1CCN(c2cc(-n3ccnc3)ncn2)CC1`, the RP-LC retention time came out at 564 s.

Turning to `CC(C)n1c(=O)oc2cc(-c3noc(-c4cc(F)ccc4Cl)n3)ccc21`, the RP-LC retention time is 1230 s.

Regarding `O=C1CC(C(F)(F)F)c2c(c(C(=O)O)cn2-c2ccc(F)cc2)N1` (stereo not drawn), the RP-LC retention time was found to be 727 s.

In the case of `COc1ccc(CCN2CC(C(=O)O)CC2=O)cc1OC` (stereo not drawn), the RP-LC retention time was found to be 611 s.

Consider `COc1cc(Cl)c(C)cc1NC(=O)C1CCCN(c2ncnc3c2nc2n3CCCCC2)C1` (stereo not drawn), for which the RP-LC retention time was found to be 996 s.

On to `CNC(=O)Nc1ccc(C2(C(=O)N3CCN(c4ccccc4)CC3)CCC2)cc1`, for which the RP-LC retention time is 754 s.

`COc1ccc(C(=O)N2CCC(COc3ccc(C(=O)NC(C)C)cc3)CC2)cc1F` displayed an RP-LC retention time of 834 s.

Regarding `COc1ccc2[nH]c(=O)c(CCC(=O)NCc3cccnc3)cc2c1`, the RP-LC retention time is 571 s.

Consider `CCOc1ccc(NC(=O)Cc2cn(C)c3ncccc23)cc1`, for which the RP-LC retention time worked out at 712 s.

As to `COc1ccc2[nH]c(=O)c(CCC(=O)NCc3cccs3)cc2c1`, the RP-LC retention time was determined as 805 s.

`COc1ccc(-c2nc(-c3cccc(-c4ccn[nH]4)c3)no2)cc1` registered an RP-LC retention time of 1000 s.

`Cc1nc(CNS(=O)(=O)c2cc([N+](=O)[O-])ccc2C)cs1` yielded an RP-LC retention time of 716 s.

Molecule `O=C(CN1C(=O)COc2ccccc2C1=O)c1cccc([N+](=O)[O-])c1` returned an RP-LC retention time of 863 s.

With `CCc1ccc(NC(=O)C2CCN(C(=O)c3ncn4c3COC(c3ccc(F)cc3)C4)CC2)cc1` (stereo not drawn), the RP-LC retention time was 890 s.

Molecule `O=C(O)c1cccn2c(=O)c3ccccc3nc12` had an RP-LC retention time of 627 s.

With `CCn1ccc(C(=O)N2CC(n3ccnc3C(C)C)C2)n1`, the RP-LC retention time was determined as 566 s.

As to `O=C(Nc1cccc(F)c1)C1CCN(S(=O)(=O)c2ccc3[nH]c(=O)ccc3c2)CC1`, the RP-LC retention time was 736 s.
